In this experiment the target is T1, Retinoic acid receptor RXR-beta (Homo sapiens) (UniProt P28702).
T1 sequence (whole entry): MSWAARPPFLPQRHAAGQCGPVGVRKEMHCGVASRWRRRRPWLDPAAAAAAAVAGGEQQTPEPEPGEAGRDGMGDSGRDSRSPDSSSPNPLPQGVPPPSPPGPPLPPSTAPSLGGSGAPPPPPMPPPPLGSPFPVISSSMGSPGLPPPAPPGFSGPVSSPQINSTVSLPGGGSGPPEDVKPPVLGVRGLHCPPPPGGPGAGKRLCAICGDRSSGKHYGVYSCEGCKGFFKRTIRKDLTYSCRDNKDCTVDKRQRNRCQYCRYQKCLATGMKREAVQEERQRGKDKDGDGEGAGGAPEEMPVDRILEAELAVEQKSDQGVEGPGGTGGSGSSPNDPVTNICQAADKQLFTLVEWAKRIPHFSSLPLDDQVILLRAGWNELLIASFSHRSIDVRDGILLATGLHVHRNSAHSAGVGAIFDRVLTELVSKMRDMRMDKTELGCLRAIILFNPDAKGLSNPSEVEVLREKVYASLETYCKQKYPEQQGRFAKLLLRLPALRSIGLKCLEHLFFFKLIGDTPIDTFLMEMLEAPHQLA
Put plainly: Agonist activity at human RXRbeta expressed in human HeLa cells assessed as relative luminescence units by luciferase assay relative to control. Type of experiment: functional, cell-based.

SMILES strings stand for the structures. Active and inactive are the calls of the source. The calls are words filed in the database; no cut-off is given here.

In the case of `CC(=C/C=C/C(C)=C/C(=O)O)/C=C/C1=C[C@H](C)CC[C@H]1C(C)C`, the outcome was Active.
